Experimental data: PMC8102414 (Heliyon, 2021)
In brackets after ≈: the same amount, converted by molar mass. Like-named read-outs stand apart in the source and are kept apart here.

Legend:
[1] = molecular target: α-glucosidase (Saccharomyces cerevisiae, UniProt P53341); type: biochemical; settings: Inactive at >100 μM
[2] = molecular target: α-amylase (Sus scrofa, UniProt P00690); type: biochemical; settings: Inactive at >100 μM
[3] = tested on: advanced glycation end products (AGEs); test: Glycation inhibition assay; type: biochemical; settings: Inactive at >100 μM
[4] = tested on: 3T3-L1 adipocyte cells; test: Glucose consumption assay; type: cell-based; settings: for Glucose consumption (IC50, μM): induction of glucose consumption, 3T3-L1 adipocyte cells, Inactive at >100 μM; for EC50: Mus musculus, 3T3-L1, read-out: Glucose consumption (IC50, μM)
[5] = tested on: L6 myotube cells; test: Glucose uptake assay; type: cell-based; settings: Inactive at >100 μM
[6] = tested on: RAW 264.7 cells; test: Nitric oxide production inhibition assay; type: cell-based
[7] = tested on: 3T3-L1 cells; test: in vitro; type: cell-based; settings: for toxicity to the cells: 3T3-L1 adipocyte cells, glucose consumption assay
[8] = tested on: RAW 264.7 cells; test: in vitro; type: cell-based; settings: MTT assay
[9] = tested on: Salmonella typhi DMST 22842; test: microbe, parasite or virus in culture; type: cell-based; settings: Gram-negative; Salmonella typhi (DMST 22842); Inactive at >128 μg/mL
[10] = tested on: Enterococcus faecalis ATCC 29212; test: Antimicrobial MIC, 2-fold serial dilution; settings: for MIC (μg/mL) EF: Gram-positive, Enterococcus faecalis (ATCC 29212), Inactive at >128 μg/mL
[11] = tested on: Micrococcus luteus DMST 15503; test: Antimicrobial MIC, 2-fold serial dilution; settings: for MIC (μg/mL) MT: Gram-positive, Micrococcus luteus (DMST 15503), Inactive at >128 μg/mL
[12] = tested on: methicillin resistant Staphylococcus aureus NPRC 001R; test: Antimicrobial MIC, 2-fold serial dilution; settings: for MIC (μg/mL) MRSA: Gram-positive, Methicillin Resistant Staphylococcus aureus (NPRC 001R), Inactive at >128 μg/mL
[13] = tested on: Staphylococcus aureus ATCC 25923; test: Antimicrobial MIC, 2-fold serial dilution; settings: for MIC (μg/mL) SA: Gram-positive, Staphylococcus aureus (ATCC 25923), Inactive at >128 μg/mL
[14] = tested on: Streptococcus pyogenes ATCC, 19615; test: Antimicrobial MIC, 2-fold serial dilution; settings: for MIC (μg/mL) SP: Gram-positive, Streptococcus pyogenes (ATCC, 19615), Inactive at >128 μg/mL
[15] = tested on: Shigella flexneri DMST 4423; test: Antimicrobial MIC, 2-fold serial dilution; settings: for MIC (μg/mL) SF: Gram-negative, Shigella flexneri (DMST 4423), Inactive at >128 μg/mL
[16] = tested on: Pseudomonas aeruginosa ATCC 10145; test: Antimicrobial MIC, 2-fold serial dilution; settings: for MIC: Pseudomonas aeruginosa, ATCC10145, read-out: MIC (μg/mL) PA
[17] = tested on: Salmonella typhimurium DMST 562; test: Antimicrobial MIC, 2-fold serial dilution; settings: for MIC (μg/mL) STR: Gram-negative, Salmonella typhimurium (DMST 562), Inactive at >128 μg/mL
[18] = tested on: Escherichia coli TISTR 780; test: Antimicrobial MIC, 2-fold serial dilution; settings: Gram-negative; Escherichia coli (TISTR 780); Inactive at >128 μg/mL
[19] = tested on: Candida albicans ATCC 10231; test: Antimicrobial MIC, 2-fold serial dilution; settings: Fungi; Candida albicans (ATCC 10231); Inactive at >128 μg/mL
[20] = tested on: S. aureus and MRSA; settings: previous study; ref Innok et al., 2010; cited from earlier work
[21] = tested on: S. aureus and MRSA; test: Antibacterial MIC against S. aureus and MRSA; settings: Staphylococcus aureus, read-out: MIC values against S. aureus and MRSA
[22] = tested on: Gram-positive bacteria and fungi; test: Antimicrobial MIC, summary over Gram-positive bacteria and fungi; settings: read-out: MIC values against Gram-positive bacteria and fungi
[23] = in vitro; type: cell-based; settings: mouse
[24] = in vitro; type: cell-based; settings: mouse; remark: listed apart in the source
[25] = LPS-stimulated NO production in RAW 264.7 cells, Inactive at >100 μM

Sequence of α-glucosidase (P53341 whole entry): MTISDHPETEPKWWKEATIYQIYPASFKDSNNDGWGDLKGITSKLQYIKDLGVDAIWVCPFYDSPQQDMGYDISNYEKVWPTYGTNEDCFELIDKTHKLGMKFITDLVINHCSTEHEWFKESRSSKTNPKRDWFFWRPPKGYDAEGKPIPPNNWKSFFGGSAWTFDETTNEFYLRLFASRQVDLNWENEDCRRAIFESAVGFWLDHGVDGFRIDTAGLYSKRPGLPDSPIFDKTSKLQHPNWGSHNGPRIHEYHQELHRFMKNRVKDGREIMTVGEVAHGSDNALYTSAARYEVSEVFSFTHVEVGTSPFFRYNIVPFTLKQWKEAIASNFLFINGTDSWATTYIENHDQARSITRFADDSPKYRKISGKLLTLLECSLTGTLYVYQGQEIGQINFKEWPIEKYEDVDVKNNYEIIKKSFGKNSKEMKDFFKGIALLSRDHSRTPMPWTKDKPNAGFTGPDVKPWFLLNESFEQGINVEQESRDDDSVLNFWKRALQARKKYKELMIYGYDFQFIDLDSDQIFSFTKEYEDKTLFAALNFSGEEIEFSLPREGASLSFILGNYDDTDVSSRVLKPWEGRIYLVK
Sequence of α-amylase (P00690 16-511): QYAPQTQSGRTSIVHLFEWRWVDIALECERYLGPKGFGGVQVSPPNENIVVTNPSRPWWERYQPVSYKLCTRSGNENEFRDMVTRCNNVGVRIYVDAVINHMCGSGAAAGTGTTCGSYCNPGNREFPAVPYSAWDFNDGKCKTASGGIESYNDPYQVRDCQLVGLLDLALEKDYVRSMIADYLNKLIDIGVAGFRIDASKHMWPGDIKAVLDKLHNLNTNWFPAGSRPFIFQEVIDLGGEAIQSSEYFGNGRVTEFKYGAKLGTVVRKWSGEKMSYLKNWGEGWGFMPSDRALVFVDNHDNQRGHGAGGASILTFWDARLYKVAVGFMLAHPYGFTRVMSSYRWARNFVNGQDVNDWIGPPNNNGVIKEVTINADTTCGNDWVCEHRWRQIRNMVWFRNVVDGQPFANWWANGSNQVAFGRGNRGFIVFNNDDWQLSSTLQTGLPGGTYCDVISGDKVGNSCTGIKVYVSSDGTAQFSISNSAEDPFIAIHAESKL

Row | Compound | Glucose consumption (IC50, μM) [4] | NO Inhibition (IC50, μM) [6, 25] | Cell viability raw 264.7 cells (%) [8] [%] | MIC (μg/mL) ST [9] | MIC (μg/mL) EF [10] | MIC (μg/mL) MT [11] | MIC (μg/mL) MRSA [12] | MIC (μg/mL) SA [13] | MIC (μg/mL) SP [14] | MIC (μg/mL) SF [15] | MIC (μg/mL) STR [17] | MIC (μg/mL) EC [18] | MIC (μg/mL) CA [19] | Glycation inhibition (IC50, μM) [3] | MIC [16] [µg/mL] | EC50 [4] [µM] | toxicity to the cells [7] | viability [23] [%] | viability [24] [%] | other results
1 | 4′-hydroxy-6,3′,5′-triprenylisoflavanone [Compound 24] | Inactive | Inactive | 3.7 ± 0.1 | 128 µg/mL | Inactive | Inactive | 128 µg/mL | 128 µg/mL | 128 µg/mL | Inactive | Inactive | 128 µg/mL | 128 µg/mL |  |  |  |  |  |  | α-Glucosidase inhibition (IC50, μM) [1]: Inactive; α-Amylase inhibition (IC50, μM) [2]: Inactive; IC50 ([3]; read-out: Glycation inhibition (IC50)): 40.5 ± 0.37 µM; Glucose uptake (fold) [5]: Inactive; Cell viability of 3T3-L1 cells (%) ([7]; MTT assay): 39.7 ± 0.7%; MIC (μg/mL) PA ([16]; Gram-negative, Pseudomonas aeruginosa (ATCC 10145), Inactive at >128 μg/mL): 128 µg/mL
2 | N=C(N)NN [Aminoguanidine, aminoguanidine, reference compound] |  |  | 97.9 ± 0.8 |  |  |  |  |  |  |  |  |  |  |  |  |  |  |  |  | IC50 ([6]; read-out: NO Inhibition (IC50), LPS-stimulated NO production in RAW 264.7 cells, Inactive at >100 μM): 22.4 ± 0.78 µM
3 | COc1ccc2c(c1CC=C(C)C)O[C@H]1c3ccc(O)cc3OC[C@@H]21 [Compound 10, sandwicensin] | Inactive | Inactive |  | Inactive |  |  |  |  |  |  |  | Inactive |  | Inactive | 128 (≈ 378 µM) |  |  |  |  | MIC values against S. aureus and MRSA (reported) [20]: 8 to 64 µg/mL; MIC ([10]; Enterococcus faecalis, ATCC29212, read-out: MIC (μg/mL) EF): 8 µg/mL (≈ 23.6 µM); MIC ([11]; Micrococcus luteus, DMST15503, read-out: MIC (μg/mL) MT): 8 µg/mL (≈ 23.6 µM); MIC ([12]; Staphylococcus aureus, MRSA, read-out: MIC (μg/mL) MRSA): 8 µg/mL (≈ 23.6 µM); MIC ([13]; Staphylococcus aureus, ATCC25923, read-out: MIC (μg/mL) SA): 64 µg/mL (≈ 189 µM); MIC ([14]; Streptococcus pyogenes, read-out: MIC (μg/mL) SP): 8 µg/mL (≈ 23.6 µM); MIC ([15]; Shigella flexneri, DMST4423, read-out: MIC (μg/mL) SF): 128 µg/mL (≈ 378 µM); MIC ([17]; Salmonella enterica, TYPHIMURIUM, read-out: MIC (μg/mL) STR): 128 µg/mL (≈ 378 µM); MIC [21]: 8 to 64 µg/mL (≈ 23.6 to 189 µM); MIC [22]: 8 to 64 µg/mL (≈ 23.6 to 189 µM)
4 | COc1c2c(cc3oc(=O)ccc13)OC(C)(C)C=C2 [Compound 26, xanthoxyletin] |  | Inactive |  | Inactive | Inactive | Inactive | Inactive | Inactive | Inactive | Inactive | Inactive | Inactive | Inactive | Inactive | 128 (≈ 496 µM) | 33.4 ± 0.34 | without toxicity to the cells |  |  | 
5 | CC1(C)C=Cc2cc(C=O)ccc2O1 [Compound 27, 2,2-dimethyl-2H-chromene-6-carboxaldehyde] |  |  |  | Inactive | Inactive | Inactive | Inactive | Inactive | Inactive | Inactive | Inactive | Inactive | Inactive | Inactive | 128 (≈ 680 µM) | 29.1 ± 0.86 | without toxicity to the cells | 98.2 ± 1.7 | 97.9 ± 1.2 | IC50 ([6]; Mus musculus, RAW264.7, read-out: NO Inhibition (IC50, μM)): 52.5 ± 0.56 µM
6 | CN(C)C(=N)N=C(N)N [Metformin, metformin, reference compound] |  |  |  |  |  |  |  |  |  |  |  |  |  |  |  | 47.2 ± 1.17 |  | 96.1 ± 0.9 | 99.4 ± 0.6 | 
